# Results from patent US7973047B2, “Beta-Secretase modulators and methods of use” (Amgen Inc., priority 2010, dated 2011).
# pIC50: −log10 of the molar value.
# System: Aβ40 in conditioned medium of cells stably expressing Amyloid Precursor Protein (APP)
# Test: BACE cell-based assay: Aβ40 in conditioned medium by sandwich ELISA
# Conditions: cell based assay data of Table 4; unit inferred; read-out: Cell Assay
# Method: The cell-based assay measures inhibition or reduction of Aβ40 in conditioned medium of test compound treated cells expressing amyloid precursor protein.
# Cells stably expressing Amyloid Precursor Protein (APP) were plated at a density of 40K cells/well in 96 well plates (Costar). The cells were cultivated for 24 hours at 37° C. and 5% CO2 in DMEM supplemented with 10% FBS. The test compounds were then added to cells in 10-point dose response concentrations with the starting concentration being either 100 μM or 10 μM. The compounds were diluted from stock solutions in DMSO and the final DMSO concentration of the test compounds on cells was 0.1%. After 24 h of incubation with the test compounds the supernatant conditioned media was collected and the Aβ40 levels were determined using a sandwich ELISA. The ICso of the compound was calculated from the percent of control or percent inhibition of Aβ40 as a function of the concentration of the test compound.
# The sandwich ELISA to detect Aβ40 was performed in 96 well microtiter plates, which were pre-treated with goat anti-rabbit IgG (Pierce). The capture and detecting antibody pair that were used to detect Aβ40 from cell supernatants were affinity purified pAb40 (Biosource) and biotinylated 6E10 (Signet Labs Inc.), respectively. The optimal concentration for the pAb40 antibody was 3 μg/ml in Superblock/TBS (Pierce) that was supplemented with 0.05% Tween 20 (Sigma).
# Cellular supernatants were incubated with the capture antibody for 3 h at 4° C., followed by 3 wash steps in TBS-tween (0.05%). The detecting antibody incubation was for 2 h at 4° C., again followed by the wash steps as described previously. The final readout of the ELISA is Time-Resolved Fluorescence (counts per minute) using Delfia reagents Streptavidin-Europium and Enhancement solutions (Perkin Elmer) and the Victor 2 multilabel counter (Perkin Elmer).
row,Structure (SMILES),pIC50
1,"CC(=O)N[C@@H](Cc1cccc(F)c1)[C@H](O)CN[C@H]1C[C@]2(C[C@H](C)C2)Oc2ncc(CC(C)C)cc21 [compound 617, N-((1S,2R)-1-((3-fluorophenyl)methyl)-2-hydroxy-3-(((1s,3R,4′S)-3-methyl-6′-(2-methylpropyl)-3′,4′-dihydrospiro[cyclobutane-1,2′-pyrano[2,3-b]pyridin]-4′-yl)amino)propyl)acetamide]",8.53
2,"CC(=O)N[C@@H](Cc1ccc(Cl)cc1)[C@H](O)CN[C@H]1C[C@]2(C[C@H](C)C2)Oc2ncc(CC(C)C)cc21 [compound 618, N-((1S,2R)-1-((4-chlorophenyl)methyl)-2-hydroxy-3-(((1s,3R,4′S)-3-methyl-6′-(2-methylpropyl)-3′,4′-dihydrospiro[cyclobutane-1,2′-pyrano[2,3-b]pyridin]-4′-yl)amino)propyl)acetamide]",7.14
3,CC(=O)N[C@@H](Cc1ccc(F)cc1)[C@H](O)CN[C@H]1C[C@]2(CC[C@@H]2C)Oc2ncc(CC(C)(C)C)cc21 [compound 619],7.49
4,CC(=O)N[C@@H](Cc1ccc(Cl)cc1)[C@H](O)CN[C@H]1C[C@]2(CC[C@@H]2C)Oc2ncc(CC(C)(C)C)cc21 [compound 620],7.21
5,CC(=O)N[C@@H](Cc1ccc(F)cc1)[C@H](O)CN[C@H]1C[C@@]2(CC[C@H]2C)Oc2ncc(CC(C)(C)C)cc21 [compound 621],≤ 5.00
6,CC(=O)N[C@@H](Cc1ccc(Cl)cc1)[C@H](O)CN[C@H]1C[C@@]2(CC[C@H]2C)Oc2ncc(CC(C)(C)C)cc21 [compound 622],≤ 5.00
7,CC(=O)N[C@@H](Cc1ccc(F)cc1)[C@H](O)CN[C@H]1C[C@]2(CC[C@H]2C)Oc2ncc(CC(C)(C)C)cc21 [compound 623],7.42
8,CC(=O)N[C@@H](Cc1ccc(Cl)cc1)[C@H](O)CN[C@H]1C[C@]2(CC[C@H]2C)Oc2ncc(CC(C)(C)C)cc21 [compound 624],7.21
9,CC(=O)N[C@@H](Cc1ccc(F)cc1)[C@H](O)CN[C@H]1C[C@@]2(CC[C@@H]2C)Oc2ncc(CC(C)(C)C)cc21 [compound 625],≤ 5.00
10,CC(=O)N[C@@H](Cc1ccc(Cl)cc1)[C@H](O)CN[C@H]1C[C@@]2(CC[C@@H]2C)Oc2ncc(CC(C)(C)C)cc21 [compound 626],≤ 5.00
11,COC(=O)N[C@@H](Cc1ccc(Cl)cc1)[C@H](O)CN[C@H]1CC2(CCC2)Oc2ncc(CC(C)(C)C)cc21 [compound 627],6.03
12,COCC(=O)N[C@@H](Cc1ccc(F)cc1)[C@H](O)CN[C@H]1CC2(CCC2)Oc2ncc(CC(C)(C)C)cc21 [compound 628],7.98
13,CC(C)(C)Cc1cnc2c(c1)[C@@H](NC[C@@H](O)[C@H](Cc1ccc(F)cc1)NC(=O)C(F)F)CC1(CCC1)O2 [compound 630],7.44
14,CC(C)(C)Cc1cnc2c(c1)[C@@H](NC[C@@H](O)[C@H](Cc1ccc(F)cc1)NC(=O)C(F)(F)F)CC1(CCC1)O2 [compound 631],7.24
15,CC(C)(C)Cc1cnc2c(c1)[C@@H](NC[C@@H](O)[C@H](Cc1ccc(F)cc1)NC(=O)CC(F)(F)F)CC1(CCC1)O2 [compound 632],6.51
16,COCCC(=O)N[C@@H](Cc1ccc(F)cc1)[C@H](O)CN[C@H]1CC2(CCC2)Oc2ncc(CC(C)(C)C)cc21 [compound 633],7.77
17,"CC(=O)N[C@@H](Cc1cscn1)[C@H](O)CN[C@H]1CC2(CCC2)Oc2ncc(CC(C)(C)C)cc21 [compound 634, N-((1S,2R)-3-(((4′S)-6′-(2,2-dimethylpropyl)-3′,4′-dihydrospiro[cyclobutane-1,2′-pyrano[2,3-b]pyridin]-4′-yl)amino)-2-hydroxy-1-(1,3-thiazol-4-ylmethyl)propyl)acetamide]",7.85
18,"CC(=O)N[C@@H](Cc1ccncc1)[C@H](O)CN[C@H]1CC2(CCC2)Oc2ncc(CC(C)(C)C)cc21 [compound 635, N-((1S,2R)-3-(((4′S)-6′-(2,2-dimethylpropyl)-3′,4′-dihydrospiro[cyclobutane-1,2′-pyrano[2,3-b]pyridin]-4′-yl)amino)-2-hydroxy-1-(4-pyridinylmethyl)propyl)acetamide]",8.52
19,"CCCc1nc(C[C@H](NC(C)=O)[C@H](O)CN[C@H]2CC3(CCC3)Oc3ncc(CC(C)(C)C)cc32)cs1 [compound 636, N-((1S,2R)-3-(((4′S)-6′-(2,2-dimethylpropyl)-3′,4′-dihydrospiro[cyclobutane-1,2′-pyrano[2,3-b]pyridin]-4′-yl)amino)-2-hydroxy-1-((2-propyl-1,3-thiazol-4-yl)methyl)propyl)acetamide]",7.83
20,"CCCc1scnc1C[C@H](NC(C)=O)[C@H](O)CN[C@H]1CC2(CCC2)Oc2ncc(CC(C)(C)C)cc21 [compound 637, N-((1S,2R)-3-(((4′S)-6′-(2,2-dimethylpropyl)-3′,4′-dihydrospiro[cyclobutane-1,2′-pyrano[2,3-b]pyridin]-4′-yl)amino)-2-hydroxy-1-((5-propyl-1,3-thiazol-4-yl)methyl)propyl)acetamide]",6.04
21,"CC(=O)N[C@@H](Cc1cncs1)[C@H](O)CN[C@H]1CC2(CCC2)Oc2ncc(CC(C)(C)C)cc21 [compound 638, N-((1S,2R)-3-(((4′S)-6′-(2,2-dimethylpropyl)-3′,4′-dihydrospiro[cyclobutane-1,2′-pyrano[2,3-b]pyridin]-4′-yl)amino)-2-hydroxy-1-(1,3-thiazol-5-ylmethyl)propyl)acetamide]",8.64
22,"CC(=O)N[C@@H](Cc1csc(C)n1)[C@H](O)CN[C@H]1CC2(CCC2)Oc2ncc(CC(C)(C)C)cc21 [compound 639, N-((1S,2R)-3-(((4′S)-6′-(2,2-dimethylpropyl)-3′,4′-dihydrospiro[cyclobutane-1,2′-pyrano[2,3-b]pyridin]-4′-yl)amino)-2-hydroxy-1-((2-methyl-1,3-thiazol-4-yl)methyl)propyl)acetamide]",7.62
23,"CC(=O)N[C@@H](Cc1ccnc(C)c1)[C@H](O)CN[C@H]1CC2(CCC2)Oc2ncc(CC(C)(C)C)cc21 [compound 640, N-((1S,2R)-3-(((4′S)-6′-(2,2-dimethylpropyl)-3′,4′-dihydrospiro[cyclobutane-1,2′-pyrano[2,3-b]pyridin]-4′-yl)amino)-2-hydroxy-1-((2-methyl-4-pyridinyl)methyl)propyl)acetamide]",8.00
24,"CC(=O)N[C@@H](Cc1nc(Cl)cs1)[C@H](O)CN[C@H]1CC2(CCC2)Oc2ncc(CC(C)(C)C)cc21 [compound 641, N-((1S,2R)-1-((4-chloro-1,3-thiazol-2-yl)methyl)-3-(((4′S)-6′-(2,2-dimethylpropyl)-3′,4′-dihydrospiro[cyclobutane-1,2′-pyrano[2,3-b]pyridin]-4′-yl)amino)-2-hydroxypropyl)acetamide]",8.17
25,"CC(=O)N[C@@H](Cc1ccnc(Cl)c1)[C@H](O)CN[C@H]1CC2(CCC2)Oc2ncc(CC(C)(C)C)cc21 [compound 642, N-((1S,2R)-1-((2-chloro-4-pyridinyl)methyl)-3-(((4′S)-6′-(2,2-dimethylpropyl)-3′,4′-dihydrospiro[cyclobutane-1,2′-pyrano[2,3-b]pyridin]-4′-yl)amino)-2-hydroxypropyl)acetamide]",8.47
26,"COc1cc(C[C@H](NC(C)=O)[C@H](O)CN[C@H]2CC3(CCC3)Oc3ncc(CC(C)(C)C)cc32)ccn1 [compound 643, N-((1S,2R)-3-(((4′S)-6′-(2,2-dimethylpropyl)-3′,4′-dihydrospiro[cyclobutane-1,2′-pyrano[2,3-b]pyridin]-4′-yl)amino)-2-hydroxy-1-((2-(methyloxy)-4-pyridinyl)methyl)propyl)acetamide]",8.17
27,"CC(=O)N[C@@H](Cc1cc(C)nc(Cl)c1)[C@H](O)CN[C@H]1CC2(CCC2)Oc2ncc(CC(C)(C)C)cc21 [compound 644, N-((1S,2R)-1-((2-chloro-6-methyl-4-pyridinyl)methyl)-3-(((4′S)-6′-(2,2-dimethylpropyl)-3′,4′-dihydrospiro[cyclobutane-1,2′-pyrano[2,3-b]pyridin]-4′-yl)amino)-2-hydroxypropyl)acetamide]",8.20
28,"CC(=O)N[C@@H](Cc1ccnc(OCC(F)(F)F)c1)[C@H](O)CN[C@H]1CC2(CCC2)Oc2ncc(CC(C)(C)C)cc21 [compound 645, N-((1S,2R)-3-(((4′S)-6′-(2,2-dimethylpropyl)-3′,4′-dihydrospiro[cyclobutane-1,2′-pyrano[2,3-b]pyridin]-4′-yl)amino)-2-hydroxy-1-((2-((2,2,2-trifluoroethyl)oxy)-4-pyridinyl)methyl)propyl)acetamide]",8.29
29,"CC(=O)N[C@@H](Cc1cc2ccccc2o1)[C@H](O)CN[C@H]1CC2(CCC2)Oc2ncc(CC(C)(C)C)cc21 [compound 646, N-((1S,2R)-1-(1-benzofuran-2-ylmethyl)-3-(((4′S)-6′-(2,2-dimethylpropyl)-3′,4′-dihydrospiro[cyclobutane-1,2′-pyrano[2,3-b]pyridin]-4′-yl)amino)-2-hydroxypropyl)acetamide]",7.28

# Same assay, conditions: read-out: Cell Assay
row,Structure (SMILES),pIC50
1,CC(C)(C)Cc1cnc2c(c1)[C@@H](NC[C@@H](O)[C@H](Cc1ccc(F)cc1)NC(=O)CF)CC1(CCC1)O2 [compound 629],7.90
